Assays:
[1] = molecular target: T1, Histone deacetylase 3 (Homo sapiens, UniProt O15379)
Description: Inhibition full length human recombinant HDAC3 expressed in baculovirus using carboxyfluorescein (FAM)-labeled acetylated/ trifluoroacetylated peptide as substrate after 60 mins by fluorescence assay

[2] = molecular target: T2, Histone deacetylase 2 (Homo sapiens, UniProt Q92769); experiment: biochemical; parameters: species or system Sf9
Description: Inhibition full length human recombinant HDAC2 expressed in baculovirus coexpressed in fall armyworm Sf9 cells using carboxyfluorescein (FAM)-labeled acetylated/ trifluoroacetylated peptide as substrate after 60 mins by fluorescence assay

[3] = molecular target: T3, Histone deacetylase 1 (Homo sapiens, UniProt Q13547); experiment: biochemical
Description: Inhibition of C-terminal His-tagged and C-terminal FLAG-tagged full length human recombinant HDAC1 expressed in baculovirus coexpressed in fall armyworm Sf9 cells using carboxyfluorescein (FAM)-labeled acetylated/ trifluoroacetylated peptide as substrate after 60 mins by fluorescence assay

[4] = Stability in mouse plasma assessed as compound remaining at 5 uM after 5 hrs by UPLC-MS analysis; assay type: ADME, cell-free; details: read-out: Stability
[5] = molecular target: T3, Histone deacetylase 1; details: Sf9
Description: Inhibition of C-terminal His-tagged and C-terminal FLAG-tagged full length human recombinant HDAC1 expressed in baculovirus coexpressed in fall armyworm Sf9 cells using carboxyfluorescein (FAM)-labeled acetylated/ trifluoroacetylated peptide as substrate assessed as residence time by fluorescence assay

[6] = molecular target: T1, Histone deacetylase 3; remark: listed apart in the source
Description: Inhibition of full length human recombinant HDAC3 expressed in baculovirus using carboxyfluorescein (FAM)-labeled acetylated/ trifluoroacetylated peptide as substrate assessed as residence time by fluorescence assay

[7] = molecular target: T2, Histone deacetylase 2; details: Sf9
Description: Inhibition of full length human recombinant HDAC2 expressed in baculovirus coexpressed in fall armyworm Sf9 cells using carboxyfluorescein (FAM)-labeled acetylated/ trifluoroacetylated peptide as substrate assessed as residence time by fluorescence assay

[8] = Stability in mouse liver microsomes assessed as compound remaining at 1 uM after 60 mins by UPLC-MS analysis; assay type: ADME; details: read-out: Stability
[9] = Cmax in Sprague-Dawley rat brain at 1 mg/kg, po; assay type: ADME, organism-based; parameters: dose 1 mg/kg, route oral
[10] = Ratio of Cmax in brain to plasma in Sprague-Dawley rat at 1 mg/kg, po; assay type: ADME, organism-based
[11] = Half life in Sprague-Dawley rat brain at 1 mg/kg, po; assay type: ADME, organism-based
[12] = molecular target: Histone deacetylase 9 (Homo sapiens, UniProt Q9UKV0); experiment: (§1) Inhibition of C-terminal His-tagged human recombinant HDAC9 (604 to 1066 residues) expressed in baculovirus coexpressed in fall armyworm Sf9 cells using carboxyfluorescein (FAM)-labeled acetylated/ trifluoroacetylated peptide as substrate after 60 mins by fluorescence assay
Chain of Histone deacetylase 9 (Q9UKV0 whole entry, the tested form may be a part): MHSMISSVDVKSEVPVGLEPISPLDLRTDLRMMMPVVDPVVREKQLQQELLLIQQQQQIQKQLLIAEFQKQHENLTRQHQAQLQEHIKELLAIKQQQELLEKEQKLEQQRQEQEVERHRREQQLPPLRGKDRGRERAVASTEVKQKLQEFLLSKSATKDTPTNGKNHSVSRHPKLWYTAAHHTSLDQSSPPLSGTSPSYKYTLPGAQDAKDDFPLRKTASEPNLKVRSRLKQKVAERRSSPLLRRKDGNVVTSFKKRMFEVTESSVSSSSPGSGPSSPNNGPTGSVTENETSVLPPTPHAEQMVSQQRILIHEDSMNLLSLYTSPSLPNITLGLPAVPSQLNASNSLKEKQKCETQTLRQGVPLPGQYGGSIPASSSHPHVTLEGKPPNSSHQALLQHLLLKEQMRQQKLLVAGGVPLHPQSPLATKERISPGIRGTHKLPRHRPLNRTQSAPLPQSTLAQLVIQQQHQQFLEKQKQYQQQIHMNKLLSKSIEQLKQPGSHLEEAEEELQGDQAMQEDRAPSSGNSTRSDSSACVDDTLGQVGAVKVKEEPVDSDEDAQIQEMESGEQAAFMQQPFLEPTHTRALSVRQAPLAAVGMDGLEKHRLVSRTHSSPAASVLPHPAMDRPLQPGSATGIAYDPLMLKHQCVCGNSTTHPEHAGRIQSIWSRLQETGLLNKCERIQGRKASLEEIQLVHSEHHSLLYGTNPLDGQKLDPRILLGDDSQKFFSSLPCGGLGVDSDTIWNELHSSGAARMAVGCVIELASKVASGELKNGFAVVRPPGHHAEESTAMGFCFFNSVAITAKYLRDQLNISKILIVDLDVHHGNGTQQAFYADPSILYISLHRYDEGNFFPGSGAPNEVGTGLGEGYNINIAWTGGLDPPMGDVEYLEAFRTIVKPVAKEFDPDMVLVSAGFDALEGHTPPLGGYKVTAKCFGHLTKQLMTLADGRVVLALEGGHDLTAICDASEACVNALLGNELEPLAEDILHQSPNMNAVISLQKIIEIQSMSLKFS

[13] = molecular target: T4, Histone deacetylase 8 (Homo sapiens, UniProt Q9BY41); experiment: Inhibition of C-terminal His-tagged full length human recombinant HDAC8 expressed in baculovirus coexpressed in fall armyworm Sf9 cells using carboxyfluorescein (FAM)-labeled acetylated/ trifluoroacetylated peptide as substrate after 60 mins by fluorescence assay
T4 sequence (Q9BY41 whole entry): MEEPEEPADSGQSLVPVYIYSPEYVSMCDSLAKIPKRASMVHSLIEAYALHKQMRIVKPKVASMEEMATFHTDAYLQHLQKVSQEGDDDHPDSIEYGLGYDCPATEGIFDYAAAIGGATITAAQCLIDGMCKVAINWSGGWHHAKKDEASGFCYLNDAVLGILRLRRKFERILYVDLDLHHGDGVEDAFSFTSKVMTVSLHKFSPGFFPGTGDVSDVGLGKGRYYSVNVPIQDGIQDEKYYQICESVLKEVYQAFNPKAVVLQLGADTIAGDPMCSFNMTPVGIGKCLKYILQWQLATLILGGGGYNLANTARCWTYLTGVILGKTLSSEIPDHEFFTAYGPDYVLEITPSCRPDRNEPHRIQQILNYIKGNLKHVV

[14] = tested on: Mus musculus; experiment: Binding affinity to mouse brain HDAC1 at 10 mg/kg, ip; assay type: functional
[15] = Oral bioavailability in Sprague-Dawley rat at 1 mg/kg; assay type: ADME, organism-based; details: in vivo
[16] = Cmax in Sprague-Dawley rat plasma at 1 mg/kg, po; assay type: ADME, organism-based; parameters: dose 1 mg/kg, route oral
[17] = Half life in Sprague-Dawley rat plasma at 1 mg/kg, po; assay type: ADME, organism-based
[18] = molecular target: Histone deacetylase 5 (Homo sapiens, UniProt Q9UQL6); experiment: Inhibition of N-terminal GST-tagged full length human recombinant HDAC5 expressed in baculovirus coexpressed in fall armyworm Sf9 cells using carboxyfluorescein (FAM)-labeled acetylated/ trifluoroacetylated peptide as substrate after 60 mins by fluorescence assay
Chain of Histone deacetylase 5 (Q9UQL6 whole entry): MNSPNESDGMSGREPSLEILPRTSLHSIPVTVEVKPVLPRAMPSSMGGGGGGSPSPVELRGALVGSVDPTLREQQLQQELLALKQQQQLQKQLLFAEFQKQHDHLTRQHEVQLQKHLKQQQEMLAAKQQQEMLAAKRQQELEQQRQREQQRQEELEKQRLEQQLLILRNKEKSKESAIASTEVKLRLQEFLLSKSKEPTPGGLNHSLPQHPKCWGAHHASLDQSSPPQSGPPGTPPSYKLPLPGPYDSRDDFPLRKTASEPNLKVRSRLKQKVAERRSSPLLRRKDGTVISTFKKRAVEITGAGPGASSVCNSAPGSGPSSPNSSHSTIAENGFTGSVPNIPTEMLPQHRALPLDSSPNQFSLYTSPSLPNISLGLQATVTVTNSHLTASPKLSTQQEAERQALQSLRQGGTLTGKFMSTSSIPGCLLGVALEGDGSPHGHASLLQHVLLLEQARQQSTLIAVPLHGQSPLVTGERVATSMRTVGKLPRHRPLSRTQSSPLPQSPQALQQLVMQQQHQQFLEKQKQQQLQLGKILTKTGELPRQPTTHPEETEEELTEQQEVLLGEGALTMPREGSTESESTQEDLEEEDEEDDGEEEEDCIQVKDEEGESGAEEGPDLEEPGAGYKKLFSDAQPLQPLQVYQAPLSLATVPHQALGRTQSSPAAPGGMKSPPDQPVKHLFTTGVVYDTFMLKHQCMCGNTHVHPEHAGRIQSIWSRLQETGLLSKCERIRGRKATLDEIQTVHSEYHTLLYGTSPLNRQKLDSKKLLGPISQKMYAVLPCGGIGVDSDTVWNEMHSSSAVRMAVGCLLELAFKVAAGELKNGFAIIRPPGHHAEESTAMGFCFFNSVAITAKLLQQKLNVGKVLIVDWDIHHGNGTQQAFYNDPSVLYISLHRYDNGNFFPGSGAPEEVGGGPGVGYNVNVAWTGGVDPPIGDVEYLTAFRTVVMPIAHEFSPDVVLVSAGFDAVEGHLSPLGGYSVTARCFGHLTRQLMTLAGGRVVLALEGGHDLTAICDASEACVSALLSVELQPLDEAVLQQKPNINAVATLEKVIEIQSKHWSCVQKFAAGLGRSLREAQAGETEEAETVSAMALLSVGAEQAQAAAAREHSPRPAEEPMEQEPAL

[19] = molecular target: Histone deacetylase 4 (Homo sapiens, UniProt P56524); experiment: as §1, with “of N-terminal GST-tagged and” for “of”, “HDAC4 (627” for “HDAC9 (604”, “1084 residues )” for “1066 residues)”
Chain of Histone deacetylase 4 (P56524 whole entry): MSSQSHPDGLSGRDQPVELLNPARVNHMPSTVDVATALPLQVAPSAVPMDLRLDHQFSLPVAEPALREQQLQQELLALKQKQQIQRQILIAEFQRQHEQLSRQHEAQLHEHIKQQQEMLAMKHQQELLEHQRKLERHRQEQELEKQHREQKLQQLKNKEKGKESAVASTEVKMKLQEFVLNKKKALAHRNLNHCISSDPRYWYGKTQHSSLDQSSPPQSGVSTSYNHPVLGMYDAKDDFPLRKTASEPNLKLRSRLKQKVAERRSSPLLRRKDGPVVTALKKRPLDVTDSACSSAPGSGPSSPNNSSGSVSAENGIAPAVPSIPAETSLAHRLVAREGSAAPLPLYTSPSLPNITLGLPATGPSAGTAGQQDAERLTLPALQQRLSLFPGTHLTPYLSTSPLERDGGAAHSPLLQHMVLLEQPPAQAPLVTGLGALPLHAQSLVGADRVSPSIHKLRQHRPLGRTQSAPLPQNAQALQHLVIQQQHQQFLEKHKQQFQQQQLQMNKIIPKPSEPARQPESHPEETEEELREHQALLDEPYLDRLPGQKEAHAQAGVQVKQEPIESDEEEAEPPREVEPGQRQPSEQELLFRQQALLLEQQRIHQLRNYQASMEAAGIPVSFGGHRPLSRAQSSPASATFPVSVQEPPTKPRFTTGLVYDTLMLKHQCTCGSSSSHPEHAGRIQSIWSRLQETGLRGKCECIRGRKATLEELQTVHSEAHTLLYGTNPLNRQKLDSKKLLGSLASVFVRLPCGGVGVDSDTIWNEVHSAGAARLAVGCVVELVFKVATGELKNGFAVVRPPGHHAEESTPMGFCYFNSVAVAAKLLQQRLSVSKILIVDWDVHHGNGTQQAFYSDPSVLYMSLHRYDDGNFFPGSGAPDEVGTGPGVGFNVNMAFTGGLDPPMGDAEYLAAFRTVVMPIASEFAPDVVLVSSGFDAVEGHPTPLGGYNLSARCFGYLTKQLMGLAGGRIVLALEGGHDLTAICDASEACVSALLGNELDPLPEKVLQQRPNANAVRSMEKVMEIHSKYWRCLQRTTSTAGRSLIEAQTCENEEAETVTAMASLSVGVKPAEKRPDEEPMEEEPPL

[20] = Ratio of AUC in brain to plasma in Sprague-Dawley rat at 1 mg/kg, po; assay type: ADME, organism-based; details: read-out: Ratio AUC
[21] = molecular target: T5, Protein deacetylase HDAC6 (Homo sapiens, UniProt Q9UBN7); experiment: Inhibition of human recombinant HDAC6 expressed in baculovirus coexpressed in fall armyworm Sf9 cells using carboxyfluorescein (FAM)-labeled acetylated/ trifluoroacetylated peptide as substrate after 60 mins by fluorescence assay
T5 sequence (Q9UBN7 whole entry): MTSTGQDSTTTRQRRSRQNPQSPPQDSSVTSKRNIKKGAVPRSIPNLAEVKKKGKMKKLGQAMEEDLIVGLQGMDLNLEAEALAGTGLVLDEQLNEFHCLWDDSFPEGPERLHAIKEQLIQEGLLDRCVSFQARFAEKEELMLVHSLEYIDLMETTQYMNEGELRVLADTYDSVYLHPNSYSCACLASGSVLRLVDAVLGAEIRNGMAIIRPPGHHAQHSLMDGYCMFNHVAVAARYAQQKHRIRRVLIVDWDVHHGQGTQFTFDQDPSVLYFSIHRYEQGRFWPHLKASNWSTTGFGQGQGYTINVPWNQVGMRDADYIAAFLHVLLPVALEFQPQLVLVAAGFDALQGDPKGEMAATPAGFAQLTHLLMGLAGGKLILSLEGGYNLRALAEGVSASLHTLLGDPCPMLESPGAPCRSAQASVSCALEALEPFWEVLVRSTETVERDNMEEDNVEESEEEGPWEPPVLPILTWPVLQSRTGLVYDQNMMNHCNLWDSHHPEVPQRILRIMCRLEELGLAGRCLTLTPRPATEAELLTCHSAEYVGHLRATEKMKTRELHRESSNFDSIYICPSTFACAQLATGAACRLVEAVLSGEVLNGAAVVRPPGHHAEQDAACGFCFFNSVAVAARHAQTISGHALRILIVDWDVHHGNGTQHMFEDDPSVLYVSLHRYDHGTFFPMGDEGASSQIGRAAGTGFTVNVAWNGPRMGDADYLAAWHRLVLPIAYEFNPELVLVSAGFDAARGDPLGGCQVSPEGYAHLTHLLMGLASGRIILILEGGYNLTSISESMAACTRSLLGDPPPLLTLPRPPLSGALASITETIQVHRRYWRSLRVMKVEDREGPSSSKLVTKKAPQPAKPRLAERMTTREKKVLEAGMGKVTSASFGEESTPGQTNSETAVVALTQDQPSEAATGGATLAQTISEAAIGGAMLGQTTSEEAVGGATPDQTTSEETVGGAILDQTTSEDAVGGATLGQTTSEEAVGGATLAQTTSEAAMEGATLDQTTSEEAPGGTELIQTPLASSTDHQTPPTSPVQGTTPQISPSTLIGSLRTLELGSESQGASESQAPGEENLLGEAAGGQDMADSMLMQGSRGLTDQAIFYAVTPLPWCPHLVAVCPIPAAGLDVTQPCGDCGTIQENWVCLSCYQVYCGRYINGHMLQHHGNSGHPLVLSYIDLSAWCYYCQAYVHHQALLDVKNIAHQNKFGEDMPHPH

[22] = molecular target: T6, Histone deacetylase 7 (Homo sapiens, UniProt Q8WUI4); experiment: Inhibition of N-terminal GST-tagged human recombinant HDAC7 (518 to end residues) expressed in baculovirus coexpressed in fall armyworm Sf9 cells using carboxyfluorescein (FAM)-labeled acetylated/ trifluoroacetylated peptide as substrate after 60 mins by fluorescence assay
T6 sequence (Q8WUI4 whole entry): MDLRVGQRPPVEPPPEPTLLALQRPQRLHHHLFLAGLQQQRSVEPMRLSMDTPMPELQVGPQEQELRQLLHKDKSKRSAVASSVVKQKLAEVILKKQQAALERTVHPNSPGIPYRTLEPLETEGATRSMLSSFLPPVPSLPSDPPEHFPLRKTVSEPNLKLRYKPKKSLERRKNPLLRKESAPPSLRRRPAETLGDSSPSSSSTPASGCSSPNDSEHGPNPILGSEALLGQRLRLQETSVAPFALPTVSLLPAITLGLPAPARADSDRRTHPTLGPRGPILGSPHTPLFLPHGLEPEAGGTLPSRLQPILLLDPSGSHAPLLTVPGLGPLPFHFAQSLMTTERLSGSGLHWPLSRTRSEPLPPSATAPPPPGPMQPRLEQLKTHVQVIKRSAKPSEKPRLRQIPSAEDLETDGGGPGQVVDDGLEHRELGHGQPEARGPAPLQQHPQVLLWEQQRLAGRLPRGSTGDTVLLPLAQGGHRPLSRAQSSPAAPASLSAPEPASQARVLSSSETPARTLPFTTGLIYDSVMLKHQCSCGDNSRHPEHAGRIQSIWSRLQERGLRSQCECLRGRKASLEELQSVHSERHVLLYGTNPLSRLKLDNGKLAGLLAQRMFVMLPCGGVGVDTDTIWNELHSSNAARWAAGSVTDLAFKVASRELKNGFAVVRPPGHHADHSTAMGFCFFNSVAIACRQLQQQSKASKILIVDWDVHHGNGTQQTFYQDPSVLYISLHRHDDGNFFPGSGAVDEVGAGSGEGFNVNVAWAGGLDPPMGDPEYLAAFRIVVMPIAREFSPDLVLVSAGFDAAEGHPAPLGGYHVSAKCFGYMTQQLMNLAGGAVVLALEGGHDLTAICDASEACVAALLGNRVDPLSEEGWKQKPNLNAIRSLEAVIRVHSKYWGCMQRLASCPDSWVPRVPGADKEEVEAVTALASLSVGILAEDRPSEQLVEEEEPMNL

[23] = tested on: Mus musculus; experiment: Binding affinity to mouse brain HDAC2 at 10 mg/kg, ip; assay type: functional
[24] = AUC in Sprague-Dawley rat brain at 1 mg/kg, po; assay type: ADME, organism-based
[25] = AUC in Sprague-Dawley rat plasma at 1 mg/kg, po; assay type: ADME, organism-based

T1 sequence (O15379 whole entry): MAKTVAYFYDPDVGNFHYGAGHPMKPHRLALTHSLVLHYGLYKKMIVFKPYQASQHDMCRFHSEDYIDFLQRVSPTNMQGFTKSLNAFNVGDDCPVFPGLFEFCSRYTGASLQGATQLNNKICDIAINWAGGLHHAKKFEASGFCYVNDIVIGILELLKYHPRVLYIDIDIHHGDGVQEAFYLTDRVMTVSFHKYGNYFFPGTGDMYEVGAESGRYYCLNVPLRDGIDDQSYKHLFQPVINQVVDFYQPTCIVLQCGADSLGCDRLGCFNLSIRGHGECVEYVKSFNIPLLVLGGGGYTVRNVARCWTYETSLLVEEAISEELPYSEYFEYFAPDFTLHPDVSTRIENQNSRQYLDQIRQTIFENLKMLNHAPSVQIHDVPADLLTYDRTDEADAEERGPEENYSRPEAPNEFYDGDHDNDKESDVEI
T2 sequence (Q92769 whole entry): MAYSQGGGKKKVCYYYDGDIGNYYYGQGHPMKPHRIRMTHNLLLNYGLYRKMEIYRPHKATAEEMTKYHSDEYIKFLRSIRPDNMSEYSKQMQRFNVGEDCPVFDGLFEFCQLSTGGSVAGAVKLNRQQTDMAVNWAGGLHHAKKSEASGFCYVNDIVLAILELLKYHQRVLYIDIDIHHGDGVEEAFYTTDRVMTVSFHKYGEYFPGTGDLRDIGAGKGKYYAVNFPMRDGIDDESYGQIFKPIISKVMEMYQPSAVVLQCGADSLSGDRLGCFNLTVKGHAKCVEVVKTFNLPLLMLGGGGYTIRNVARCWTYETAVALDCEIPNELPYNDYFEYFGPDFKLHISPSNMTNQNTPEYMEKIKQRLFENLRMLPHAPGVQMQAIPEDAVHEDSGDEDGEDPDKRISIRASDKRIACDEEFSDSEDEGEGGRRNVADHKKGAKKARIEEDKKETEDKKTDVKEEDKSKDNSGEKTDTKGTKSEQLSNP
T3 sequence (Q13547 whole entry): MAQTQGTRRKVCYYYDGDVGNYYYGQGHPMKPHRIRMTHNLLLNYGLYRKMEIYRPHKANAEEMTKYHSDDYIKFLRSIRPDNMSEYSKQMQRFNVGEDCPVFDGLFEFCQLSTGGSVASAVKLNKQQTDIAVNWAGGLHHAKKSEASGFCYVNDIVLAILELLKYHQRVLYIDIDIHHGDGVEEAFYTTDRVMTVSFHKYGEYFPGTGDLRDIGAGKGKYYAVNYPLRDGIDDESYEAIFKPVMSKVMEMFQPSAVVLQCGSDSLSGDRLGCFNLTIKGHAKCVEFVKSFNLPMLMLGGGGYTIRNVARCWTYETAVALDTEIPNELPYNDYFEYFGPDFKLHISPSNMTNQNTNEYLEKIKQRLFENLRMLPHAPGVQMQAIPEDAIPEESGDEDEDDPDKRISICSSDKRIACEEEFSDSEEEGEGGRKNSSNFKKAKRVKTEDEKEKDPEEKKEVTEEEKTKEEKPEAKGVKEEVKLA

Row | SMILES | IC50 [1] | IC50 [2] | IC50 [3] | remaining at 5 h, 5 µM [4] | T1/2 [5] | T1/2 [6] | other results
1 | Nc1ccc(-c2ccc(F)cc2)cc1NC(=O)[C@@H]1CCCCO1 | 5.95 µM | 1.45 µM | 1.43 µM | 0% | – | – | –
2 | Nc1ccc(-c2ccc(F)cc2)cc1NC(=O)C1CCc2ccccc2O1 (centres undefined) | 6.26 µM | 6.56 µM | 5.59 µM | 3.7% | – | – | –
3 | Nc1ccc(-c2ccc(F)cc2)cc1NC(=O)C1C2COCC21 (centres undefined) | – | – | – | 94.1% | 13 min | 217 min | remaining at 1 h, 1 µM [8]: 60%; T1/2 [7]: 58 min
4 | Nc1ccc(-c2ccc(F)cc2)cc1NC(=O)[C@@H]1C[C@H]2CC[C@@H](C1)O2 | – | – | – | 114% | 3 min | 132 min | Cmax [9]: 890 nM; remaining at 1 h, 1 µM [8]: 62%; T1/2 [7]: 37 min; Kp [10]: 0.22; half-life [11]: 146 min; IC50 [12]: > 33.3 µM; IC50 [13]: > 33.3 µM; Activity [14]: 42%; bioavailability [15]: 33.4%; Cmax [16]: 3970 nM; half-life [17]: 282 min; IC50 [18]: > 33.3 µM; IC50 [19]: > 33.3 µM; Kp [20]: 0.17; IC50 [21]: > 33.3 µM; IC50 [22]: > 33.3 µM; Activity [23]: 10%; AUC [24]: 1.8 µM·h; AUC [25]: 10.8 µM·h
5 | Nc1ccc(-c2ccc(F)cc2)cc1NC(=O)C1CCCOC1 (centres undefined) | 19.8 µM | 4.73 µM | 1.22 µM | – | – | – | –
6 | Nc1ccc(-c2ccc(F)cc2)cc1NC(=O)C1Cc2ccccc2CO1 (centres undefined) | 25.9 µM | 0.119 µM | 0.045 µM | 11.1% | – | – | –
7 | Nc1ccc(-c2ccc(F)cc2)cc1NC(=O)[C@H]1CCCCO1 | 5.73 µM | 1.29 µM | 0.467 µM | 0% | – | – | –
8 | Nc1ccc(-c2ccc(F)cc2)cc1NC(=O)C1COc2ccccc2C1 (centres undefined) | – | – | – | 100% | – | – | remaining at 1 h, 1 µM [8]: 25%

Continued, in another order:

Row | IC50 [1] | IC50 [2] | IC50 [3] | remaining at 5 h, 5 µM [4] | T1/2 [5] | T1/2 [6] | SMILES | other results
9 | – | – | – | – | 2.35 min | > 33.3 min | Nc1ccc(-c2ccncc2)cc1NC(=O)C1CCOCC1 | –
10 | – | – | – | – | 6.45 min | 20.8 min | Nc1ccc(-c2cccnc2)cc1NC(=O)C1CCOCC1 | –
11 | – | – | – | – | 0.119 min | 3.85 min | Nc1ccc(-c2ccccc2)cc1NC(=O)C1CCOCC1 | –
12 | – | – | – | – | 9.67 min | > 33.3 min | Nc1ccc(-c2cccc(F)c2)cc1NC(=O)C1CCOCC1 | T1/2 [7]: 12.3 min
13 | – | – | – | – | 26.7 min | > 33.3 min | Nc1ccc(-c2ccc(C(F)(F)F)cc2)cc1NC(=O)C1CCOCC1 | T1/2 [7]: > 33.3 min
14 | – | – | – | 93% | – | – | Nc1ccc(-c2ccc(F)cc2)cc1NC(=O)C1CCOCC1 | remaining at 1 h, 1 µM [8]: 54%; Activity [14]: 68%; Activity [23]: 10%

— ChEMBL document CHEMBL3826926, “Kinetic and structural insights into the binding of histone deacetylase 1 and 2 (HDAC1, 2) inhibitors” (Bioorg Med Chem, 2016)
